In patent US5602141A, “Camptothecin derivatives and process for their preparation” (Pharmacia & Upjohn S.P.A., priority 1994, dated 1997):

Legend:
Topoisomerase I = conditions: Wani et al. 1987; Hsiang et al. 1989; cited from earlier work
[1] = Slichenmyer et al. 1993; cited from earlier work
[2] = tested on: L1210 murine leukemia cells; assay: Method (a): cytotoxic activity on L1210 murine leukemia cells, 48 h exposure, Coulter Counter; assay type: cell-based; conditions: Mus musculus, 48 h at 37° C., mean of 3 different experiments, read-out: IC50 (dose causing 50% inhibition of cell growth relative to untreated controls)
Experimental: Method (a): Evaluation of Cytotoxic Activity
L1210 murine leukemia cells were grown in vitro as a stationary suspension in RPMI 1640 medium supplemented with 10% fetal calf serum, 2 mM L-glutamine, 10 μM B-mercaptoethanol, 100 UI/ml penicillin and 100 μg streptomycin. For assaying the cytotoxic activity, exponentialily growing cells were seeded at the concentration of 1×10^5 cells/ml and exposed to graded doses of the compounds under evaluation for 48 h at 37° C. in an humidified atmosphere of 5% CO2. The number of surviving cells was determined with a Coulter Counter; results are expressed as IC50 (dose causing 50% inhibition of cell growth in treated cultures relative to untreated controls after 48 h treatment).
In this assay, 9-(iminomethyl-amino)-camptothecin (internal code FCE 28536) and 9-(dimethylamino-methyleneamino)-camptothecin (internal code FCE 29006) were tested and the obtained results, which represent the mean of 3 different experiments, are reported on Table 2 below.

L1210 murine leukemia = assay: Method (b): antitumor (antileukemic) activity, L1210 murine leukemia implanted ip into CD2F1 mice, median survival time; assay type: in vivo; conditions: 24 h after tumor cells implant (day 1)
Experimental: Method (b): Evaluation of Antitumor Activity
L1210 murine leukemia was maintained in DBA2 mice by weekly ip transplants of 10^5 cells/mouse. For assaying the antileukemic activity, […] were implanted ip into CD2F1 mice; graded doses of the compounds under evaluation were administered ip 24 h after tumor cells implant on day 1 controls receiving vehicle alone.
The activity of the drugs was determined evaluating the median survival time (MST) of each group of mice.
The obtained results, expressed as % T/C, are reported on Table 3 below.

| SMILES | antitumor activity by the inhibition of Topoisomerase I (Topoisomerase I) | solubility in aqueous solutions [1] | IC50 [2] [µM] | % T/C (MST treated mice/MST control mice × 100) (L1210 murine leukemia; 5 mg/kg ip) | % T/C (MST treated mice/MST control mice × 100) (L1210 murine leukemia; 10 mg/kg ip) [%] | % T/C (MST treated mice/MST control mice × 100) (L1210 murine leukemia; 15 mg/kg ip) [%] |
| --- | --- | --- | --- | --- | --- | --- |
| CC[C@@]1(O)C(=O)OCc2c1cc1n(c2=O)Cc2cc3c(N)cccc3nc2-1 [9-amino camptothecin] | potent antitumor activity by the inhibition of Topoisomerase I | low solubility in aqueous solutions | – | – | – | – |
| CC[C@@]1(O)C(=O)OCc2c1cc1n(c2=O)Cc2cc3c(NC=N)cccc3nc2-1 [FCE 28536, 9-(iminomethyl-amino)-camptothecin] | – | – | 0.082 | 150-163% | 188 | – |
| CC[C@@]1(O)C(=O)OCc2c1cc1n(c2=O)Cc2cc3c(N=CN(C)C)cccc3nc2-1 [FCE 29006, 9-(dimethylamino-methyleneamino)-camptothecin] | – | – | 0.12 | 150% | 163 | 175 |
| CC[C@@]1(O)C(=O)OCc2c1cc1n(c2=O)Cc2cc3ccccc3nc2-1 [Camptothecin, camptothecin] | potent antitumor activity by the inhibition of Topoisomerase I | low solubility in aqueous solutions | – | – | – | – |
